Consider three compounds from publication PMC8589628, “Characterization and Antimicrobial Studies of Iturin-Like and Bogorol-Like Lipopeptides From Brevibacillus spp. Strains GI9 and SKDU10” (Frontiers in Microbiology, 2021).

The test system of data set [1] is F. moniliforme MTCC 158. The experiment in a line: MIC against phytopathogenic fungi, 96-well microtiter plate method. The format is cell-based, Fusarium moniliforme. To be noted: Fusarium verticillioides, MTCC158, PDB. The protocol: (§1) The antimicrobial activity of HPLC purified compounds was determined against various test strains including S. aureus MTCC 1430, Vibrio cholera MTCC 3904, Bacillus subtilis MTCC 121, Listeria monocytogenes MTCC 839, C. albicans MTCC 183, C. albicans MTCC 1637, C. albicans MTCC 227, C. tropicalis MTCC 184, C. glabrata MTCC 3019, and C. inconspicua MTCC 1074. Antimicrobial activity was also tested against clinical Candida strains and phytopathogenic fungi viz. Fusarium moniliforme MTCC 158, Alternaria brassicicola MTCC 2102 and Colletotrichum acutatum MTCC 1037. Bacterial and Candida test strains were grown in NB and yeast malt broth (YMB), respectively. Fungal test strains were grown in potato dextrose broth (PDB). Minimum inhibitory concentrations (MICs) of purified compounds were evaluated against test organisms by using a microtiter plate dilution assay. Mid-log-phase test strains (5 × 10^5 CFU/ml) were incubated in a 96-well plate with different concentrations of the lipopeptides for 24–48 h at 37°C (final volume of 200 μl). OD was measured at 600 nm after 24 and 48 h for bacteria and yeast, respectively, using an ELISA microplate reader (Thermo Scientific, United States). MIC against phytopathogenic fungi was determined using the 96-well microtiter plate method ([Sharma et al., 2020]).

In data set [2] the test system is A. brassicicola MTCC 2102. The data set is described as above. The format is cell-based, Alternaria brassicicola. Set-up: key to MIC value: R = resistant. How it is done:
as §1

For data set [3], the system named is C. albicans MTCC 227. Nature of the data set: MIC, microtiter plate dilution assay. The conditions noted are these: 5 × 10^5 CFU/ml, 37°C, OD 600 nm after 48 h. Set-up: key to MIC value: R = resistant. The format is cell-based, Candida albicans. The protocol: as §1
Data set [4] concerns C. albicans MTCC 1637. Nature of the data set: MIC, microtiter plate dilution assay. The format is cell-based, Candida albicans. Set-up: key to MIC value: R = resistant. To be noted: 5 × 10^5 CFU/ml, 37°C, OD 600 nm after 48 h. The protocol: as §1
The subject of data set [5] is C. parapsilosis 450030. Nature of the data set: MIC, microtiter plate dilution assay, clinical strain. The format is cell-based. The conditions noted are these: Lodderomyces parapsilosis, YMB, 37°C, OD 600 nm after 48 h. How it is done: (§2) Brevibacillus sp. strains GI-9 and SKDU10 were known to produce class IId bacteriocins identified as laterosporulins a ([Singh et al., 2012]; [Baindara et al., 2016]). Both strains were grown on nutrient agar (NA, Himedia, India). All test strains used in this study were obtained from Microbial Type Culture Collection and Gene bank (MTCC), Chandigarh, India. Clinical Candida strains were obtained from the National Culture Collection of Pathogenic Fungi (NCCPF), PGIMER, Chandigarh, India, and all strains were grown on recommended media.
as §1

Data set [6] relates to C. krusei 440009. Described as above. The format is cell-based. To be noted: Pichia kudriavzevii, YMB, 37°C, OD 600 nm after 48 h. The protocol:
as §2, §1

For data set [7], the system named is C. rugosa 470141. Described as above. The format is cell-based. The conditions noted are these: Diutina rugosa, YMB, 37°C, OD 600 nm after 48 h. The protocol: as §2, §1
For data set [8], the system named is C. albicans 400054. The data set is described as above. The conditions noted are these: YMB, 37°C, OD 600 nm after 48 h. The format is cell-based, Candida albicans. Set-up: key to MIC value: R = resistant. How it is done: as §2, §1
In data set [9] the test system is C. inconspicua MTCC 1074. The experiment in a line: MIC, microtiter plate dilution assay. The format is cell-based. To be noted: Pichia inconspicua, MTCC1074, YMB, 5 × 10^5 CFU/ml, 37°C, OD 600 nm after 48 h. The protocol: as §1
Data set [10] concerns C. auris 470126. Nature of the data set: MIC, microtiter plate dilution assay, clinical strain. The format is cell-based. Set-up: key to MIC value: R = resistant. To be noted: YMB, 37°C, OD 600 nm after 48 h. The protocol:
as §2, §1

The subject of data set [11] is C. kefyr 410004. The description is as above. The format is cell-based. Set-up: key to MIC value: R = resistant. To be noted: YMB, 37°C, OD 600 nm after 48 h. How it is done:
as §2, §1

Data set [12] relates to C. haemulonii 470125. The data set is described as above. The format is cell-based. Set-up: key to MIC value: R = resistant. To be noted: YMB, 37°C, OD 600 nm after 48 h. How it is done:
as §2, §1

For data set [13], the system named is C. tropicalis 420024. The description is as above. The format is cell-based. Set-up: key to MIC value: R = resistant. The conditions noted are these: YMB, 37°C, OD 600 nm after 48 h. The protocol:
as §2, §1

Data set [14] relates to C. haemulonii MTCC 2766. Nature of the data set: MIC, microtiter plate dilution assay. The format is cell-based. Set-up: key to MIC value: R = resistant. To be noted: 5 × 10^5 CFU/ml, 37°C, OD 600 nm after 48 h. How it is done: as §1
The test system of data set [15] is C. tropicalis MTCC 184. Nature of the data set: MIC, microtiter plate dilution assay. Set-up: key to MIC value: R = resistant. The format is cell-based. The conditions noted are these: 5 × 10^5 CFU/ml, 37°C, OD 600 nm after 48 h. The protocol: as §1
Data set [16] concerns C. glabrata MTCC 3019. Nature of the data set: MIC, microtiter plate dilution assay. Set-up: key to MIC value: R = resistant. The format is cell-based. The conditions noted are these: 5 × 10^5 CFU/ml, 37°C, OD 600 nm after 48 h. The protocol:
as §1

For data set [17], the system named is C. albicans MTCC 183. The experiment in a line: MIC, microtiter plate dilution assay. The format is cell-based, Candida albicans. To be noted: Candida albicans, MTCC183, YMB, 5 × 10^5 CFU/ml, 37°C, OD 600 nm after 48 h. The protocol: as §1
Data set [18] deals with C. acutatum MTCC1037. The experiment in a line: MIC against phytopathogenic fungi, 96-well microtiter plate method. The format is cell-based, Colletotrichum acutatum. Set-up: key: R = resistant. The conditions noted are these: PDB. The protocol: as §1
The test system of data set [19] is Vigna radiata (Moong) seeds. Nature of the data set: Seed germination-based phytotoxicity assay. The conditions noted are these: Vigna radiata seeds soaked in 0.1% solution (positive control), up to 3 days. The protocol:
For hemolysis assay rabbit erythrocytes were treated with different concentrations of purified active antimicrobial compounds ranging from 250 to 750 μg/ml and incubated at 37°C for 24 h in a 5% CO2 incubator. The release of hemoglobin was monitored by measuring the absorbance at 540 nm in a microplate reader. PBS and 0.1% Triton X-100 were used as controls for 0 and 100% hemolysis, respectively ([Singh et al., 2021]). For phytotoxicity assay, sterilized Vigna radiata (Moong) seeds were treated with different concentrations of purified antimicrobial compounds (250–750 μg/ml). Seeds soaked in water and 0.1% mercuric chloride were used as negative and positive control, respectively. Seeds germination was observed up to 3 days of incubation.

Structures are written as SMILES. Values after ≈ are worked out from the molar mass of the structure shown.

Take `C[C@@H]1[C@H](O)[C@@H](C)/C=C/C=C/C=C/C=C/C=C/C=C/C=C/[C@H](O[C@@H]2O[C@H](C)[C@@H](O)[C@H](N)[C@@H]2O)C[C@@H]2O[C@](O)(C[C@@H](O)C[C@@H](O)[C@H](O)CC[C@@H](O)C[C@@H](O)CC(=O)O[C@H]1C)C[C@H](O)[C@H]2C(=O)O` [Amphotericin B]: the MIC in [1] amounted to 50 µg/mL (≈ 54.1 µM); in data set [2] (Alternaria brassicicola, MTCC2102, PDB), 50 µg/mL (≈ 54.1 µM); in [3] (Candida albicans, MTCC227, YMB) it was 5 µg/mL (≈ 5.41 µM); in data set [4] (Candida albicans, MTCC1637, YMB) it was 5 µg/mL (≈ 5.41 µM); in data set [5], 50 µg/mL (≈ 54.1 µM); in data set [6], 5 µg/mL (≈ 5.41 µM). For the same compound, the MIC in [7] is 5 µg/mL (≈ 5.41 µM); in [8] (Candida albicans), 5 µg/mL (≈ 5.41 µM); in data set [9], 10 µg/mL (≈ 10.8 µM); in data set [10] (Candidozyma auris) it was 5 µg/mL (≈ 5.41 µM); in data set [11] (Kluyveromyces marxianus), 50 µg/mL (≈ 54.1 µM); in data set [12] (Candidozyma haemuli), 50 µg/mL (≈ 54.1 µM). The MIC came out at 50 µg/mL (≈ 54.1 µM) in data set [13] (Candida tropicalis); 100 µg/mL (≈ 108 µM) in data set [14] (Candidozyma haemuli, MTCC2766, YMB); 35 µg/mL (≈ 37.9 µM) in data set [15] (Candida tropicalis, MTCC184, YMB); 25 µg/mL (≈ 27.1 µM) in [16] (Nakaseomyces glabratus, MTCC3019, YMB); 5 µg/mL (≈ 5.41 µM) in data set [17]. In addition, in data set [18], the MIC value entry is “R”.
On to `OC(Cn1cncn1)(Cn1cncn1)c1ccc(F)cc1F` [Fluconazole], for which the MIC in data set [1] worked out at 10 µg/mL (≈ 32.7 µM); in data set [5] it was 10 µg/mL (≈ 32.7 µM); in [6], 1 µg/mL (≈ 3.27 µM); in data set [7], 5 µg/mL (≈ 16.3 µM); in [9], 50 µg/mL (≈ 163 µM). Also, the MIC value entry in data set [2] (PDB), in data set [3] (YMB), in data set [4] (YMB), in data set [8], in [10] and in [11] was “R” in each case. Moreover, the MIC value entry in data set [12], in data set [13], in [14] (YMB), in data set [15] (YMB), in data set [16] (YMB) and in data set [18] was “R” throughout.
Turning to `[Cl][Hg][Cl]` [mercuric chloride], the Seed germination result in data set [19] is “No germination”.

In general, MIC refers to the lowest concentration found to suppress growth.
